Results taken from ChEMBL document CHEMBL1142943, “Homology modeling of human Fyn kinase structure: discovery of rosmarinic acid as a new Fyn kinase inhibitor and in silico study of its possible binding modes” (J Med Chem, 2007).

How the values were obtained:
[1] = target: T1, Tyrosine-protein kinase Fyn (Homo sapiens, UniProt P06241); assay: Inhibition of human Fyn expressed in Sf9 cells at 10 umol/L by ELISA
[2] = target: T1, Tyrosine-protein kinase Fyn; assay: Inhibition of human Fyn expressed in Sf9 cells after 1 min by ELISA in presence of 100 umol/L ATP
[3] = target: T1, Tyrosine-protein kinase Fyn; assay: Inhibition of human Fyn expressed in Sf9 cells after 1 min by ELISA in presence of 10 umol/L ATP
[4] = target: T1, Tyrosine-protein kinase Fyn; assay: Inhibition of human Fyn expressed in Sf9 cells after 20 mins by ELISA in presence of 100 umol/L ATP
[5] = target: T1, Tyrosine-protein kinase Fyn; assay: Inhibition of human Fyn expressed in Sf9 cells at 30 umol/L by ELISA
[6] = target: T1, Tyrosine-protein kinase Fyn; assay: Inhibition of human Fyn expressed in Sf9 cells after 20 mins by ELISA in presence of 10 umol/L ATP
[7] = target: T1, Tyrosine-protein kinase Fyn; assay: Inhibition of human Fyn expressed in Sf9 cells after 20 mins by ELISA in presence of 1 umol/L ATP
[8] = target: T1, Tyrosine-protein kinase Fyn; assay: Inhibition of human Fyn expressed in Sf9 cells after 1 min by ELISA in presence of 1 umol/L ATP

T1 sequence (P06241 whole entry): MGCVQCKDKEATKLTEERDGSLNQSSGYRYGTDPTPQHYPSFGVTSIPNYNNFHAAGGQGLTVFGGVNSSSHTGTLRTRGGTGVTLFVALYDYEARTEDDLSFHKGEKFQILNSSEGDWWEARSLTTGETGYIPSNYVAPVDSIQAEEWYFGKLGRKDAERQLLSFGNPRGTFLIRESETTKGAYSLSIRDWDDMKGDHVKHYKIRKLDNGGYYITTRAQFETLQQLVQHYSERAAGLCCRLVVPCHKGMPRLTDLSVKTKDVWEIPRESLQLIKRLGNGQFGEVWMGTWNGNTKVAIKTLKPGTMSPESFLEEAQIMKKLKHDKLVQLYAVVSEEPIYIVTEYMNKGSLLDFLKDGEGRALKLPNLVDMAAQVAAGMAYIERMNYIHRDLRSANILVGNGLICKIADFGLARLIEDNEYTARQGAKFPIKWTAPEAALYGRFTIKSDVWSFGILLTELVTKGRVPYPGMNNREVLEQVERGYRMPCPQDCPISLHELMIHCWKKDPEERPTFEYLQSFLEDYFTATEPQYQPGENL

O=C(/C=C/c1ccc(O)c(O)c1)O[C@H](Cc1ccc(O)c(O)c1)C(=O)O [ROSMARINIC ACID]
Ki [1]: 7.5 µM
IC50 [2]: 63 µM
IC50 [3]: 74 µM
IC50 [4]: 17 µM
Ki [5]: 10.2 µM
IC50 [6]: 3.6 µM
IC50 [7]: 1300 nM
IC50 [8]: 36 µM
